Experimental findings from patent publication US8455442B2, “Peptides having binding affinity to an antibody which recognizes an epitope on an α1 loop 2 or β2 loop 1 of an adrenoreceptor” (MDC Max-Delbruck-Centrum fur Molekulare Medizin Berlin-Buch, priority 2008, dated 2013) are described below.

For assay [1], the system named is antibodies from patients with Morbus Alzheimer directed to the α1A Adrenoceptor. The experiment in a line: Peptide neutralization of the antibody-mediated increase of the beating rate (neonatal rat cardiomyocyte bioassay). The assay is classed as cell-based, human. The conditions noted are these: FIG. 6; overlapping peptides of the second extracellular loop of the α1A Adrenoceptor co-incubated with patient immunoglobulins (n=5). How it is done:
(§1) Preparation of the immunoglobulin fraction.
(§2) The buffer was changed five times during dialysis.
(§3) After the dialysis, the IgG fractions feature a concentration of 10-15 mg/ml, a maximum of 10 μg/ml of which are specific receptor antibodies. 50 μl of this IgG solution are pre-incubated with the peptides with the following concentration of peptides: 5 μl of a buffered solution of 100 μg/ml per 50 μl IgG solution. This mixture is pre-incubated at room temperature for 30 minutes and subsequently filled into the cell culture vials, after the former nutrient solution has been removed by pipet. The amount of the medium is 2 ml. The final concentration therefore is of […] for the IgG and 0.5 μg for the peptides. If the molecular weight of the peptide (10 mer) is set with 1 KD and that of the IgG is set with 150 KD, there is an excess of […].
(§4) For the neutralization experiments, synthetic peptides corresponding to the sequence of the three extracellular loops of the human β2 AR or α1A-AR was added in excess (0.5 μg in 50 μl) to 50 μl of the immunoglobulin fraction. The mixtures were shaken and incubated at room temperature for 1 h. The 100-μl samples were then added to neonatal rat heart muscle cells cultured in 2 ml medium to a final dilution of 1:40. The beating rate was counted for 15 s, about 60 min after the addition of the peptide/immunoglobulin mixture. […]

A further assay has as its system α1 adrenergic receptor. The assay can be described thus: Antagonist block of patient-antibody stimulation of the beating rate of cultured neonatal rat cardiomyocytes. The conditions noted are these: FIG. 1; prazosin given in addition to ICI 118,551; patient immunoglobulins on rat cardiomyocytes. Type of assay: cell-based.
Excerpt: as §1, §2

Assay [2] has as its system antibodies from patients with Morbus Alzheimer directed to the β2 Adrenoceptor. The experiment in a line: Peptide neutralization of the antibody-mediated increase of the beating rate (neonatal rat cardiomyocyte bioassay). The conditions noted are these: FIG. 3; overlapping epitope peptides of loop 1 of the β2-AR co-incubated with patient immunoglobulins (n=6). Type of assay: cell-based, human. How it is done:
as §1, §2, §3, §4

With “APEDET [peptide embedded in the second extracellular loop of the α1A Adrenoceptor]”, the “neutralisation of the cellular activity of the immunoglobulins” value in assay [1] is “neutralises”.
For the molecule `COc1cc2nc(N3CCN(C(=O)c4ccco4)CC3)nc(N)c2cc1OC` [prazosin], in the assay with α1 adrenergic receptor, the “inhibition of cellular activity of contraction” value is listed as “more effective inhibition”.
FGNFWCE: the “neutralisation of antibody mediated increase of the beating rate” value in assay [2] is listed as “neutralisation”.
